Data: patent publication US20200061092A1, “METHODS AND COMPOSITIONS FOR TREATING DISORDERS ASSOCIATED WITH MUSCLE WEAKNESS” (priority 2018, published 2020)

Columns and labels:
[1] = system: FKRP P448L mutant mice; assay: Histopathological and morphometric analysis (H&E, Masson's Trichrome) of muscles of P448L mice; type: in vivo, mouse
Procedure: Ribitol was purchased from Sigma (A5502 Adonitol, ≥98%, Sigma, St. Louis) and dissolved in drinking water to the final concentration of 5% or 10%. […] mice aged at 4 weeks were treated with 5% ribitol drinking water for 1 month and […] mice aged at 7 weeks were treated with 5% ribitol drinking water for 3 months and 6 months. All the mice were randomly assigned to either treatment or control groups. And a minimum number of 4 mice were used for each group. No animal was excluded. […] female breeders were given 10% ribitol in drinking water during pregnancy, and pups continued to be treated with 10% ribitol in drinking water until they were euthanized at 19 weeks of age. Untreated age-matched […] and wild-type C57BL/6 mice were used as controls. The animals were terminated at the end of each treatment time point and tissues including heart, diaphragm, TA, quadriceps, liver, spleen and kidney were collected for analyses. Frozen tissues were processed for hematoxylin and eosin (H&E) and Masson's Trichrome staining following standard procedures. Muscle cross-sectional fiber equivalent diameter was determined from tibialis anterior and quadriceps stained with H&E using MetaMorph v7.7 Software (Molecular Devices). Percentage of centrally nucleated myofibers were manually quantified from the same tissue sections stained with H&E. Fibrotic area represented by blue staining in the Masson's Trichrome stained sections was quantified from heart, diaphragm, tibialis anterior and quadriceps using ImageJ software. For all the morphometric analyses, a total of 300 to 400 fibers from two representative 20× magnification images per each muscle per animal were used.

[2] = system: FKRP P448L mutant mice; assay: Muscle function tests (treadmill exhaustion, grip strength) in P448L mice; type: in vivo, mouse
Procedure: For treadmill exhaustion test, 17 and 30 weeks old mice were placed on the belt of a five-lane-motorized treadmill (LE8700 treadmill, Panlab/Harvard Apparatus, Barcelona, Spain) supplied with shock grids mounted at the back of the treadmill, which delivered a 0.2 mA current to provide motivation for exercise. Initially, the mice were subjected to an acclimation period (time, 5 min; speed, 8 cm/s, and 0° incline). Immediately after acclimation period, the test commenced with speed increases of 2 cm/s every minute until exhaustion. The test was stopped and the time to exhaustion was determined when the mouse remained on the shock grid for 5 s without attempting to re-engage the treadmill. For grip force test, forelimb and hindlimb in peak torque was measured by a grip strength meter (Columbus Instruments). For forelimb force, the animal was held so that only the forelimb paws grasp the specially designed mouse flat mesh assembly, and was pulled back from the tail until the grip was broken. The force transducer recorded the peak force reached when the animal's grip is broken. For hindlimb force, an angled mesh assembly was used. Mice were allowed to rest on the angled mesh assembly, facing away from the meter with its hindlimbs at least one-half of the way down the length of the mesh. The mouse tail was pulled directly toward the meter and parallel to the mesh assembly. During this procedure, the mice resist by grasping the mesh with all four limbs. Pulling toward the meter was continued until the hindlimbs released from the mesh assembly. Five successful hindlimb and forelimb force measurements within 2 minutes were recorded. The average value was used for analysis. Force was presented as values of KGF (kilogram-force) units normalized to bodyweights (gr) as “Units/gr”. The tests were performed 1 week before euthanasia.

[3] = system: FKRP P448L mutant mice; assay: Whole body plethysmography (respiratory function) in P448L mice; type: in vivo, mouse
Procedure: Respiratory functional analysis in conscious, freely moving 18 and 31 weeks old mice were measured using a whole-body plethysmography technique. The plethysmograph apparatus (Emka Technologies, Falls Church, Va.) was connected to a ventilation pump for the purpose of maintaining a constant air flow, a differential pressure transducer, a usbAMP signal amplifier, and a computer running EMKA iox2 software with the respiratory flow analyzer module, which was used to detect pressure changes due to breathing and recording the transducer signal. An initial amount of 20 mL of air was injected and withdrawn via a 20 mL syringe into the chamber for the purpose of calibration. Mice were placed inside the “free moving” plethysmograph chamber and allowed to acclimate for 5 min in order to minimize any effects of stress related changes in ventilation. Resting ventilation was measured for a duration of 15 min after the acclimation period. Body temperatures of all mice were assumed to be 37° C. and to remain constant during the ventilation protocol.

[4] = system: FKRP P448L mutant mice; assay: Ribitol toxicity evaluation: body weight, histology of liver, kidney and spleen, serum biochemical markers; type: in vivo, mouse
Procedure: All animal studies were approved by the Institutional Animal Care and Use Committee (IACUC) of Carolinas Medical Center. All mice were housed in the vivarium of Carolinas Medical Center following animal care guidelines of the institute. Animals were ear tagged prior to group assignment. Food and water were available ad libitum during all phase of the study. Body weight was measured from 6 weeks to 19 weeks of age.
Ribitol was purchased from Sigma (A5502 Adonitol, ≥98%, Sigma, St. Louis) and dissolved in drinking water to the final concentration of 5% or 10%. P448L mice aged at 4 weeks were treated with 5% ribitol drinking water for 1 month and P448L mice aged at 7 weeks were treated with 5% ribitol drinking water for 3 months and 6 months. All the mice were randomly assigned to either treatment or control groups. And a minimum number of 4 mice were used for each group. No animal was excluded. P448L female breeders were given 10% ribitol in drinking water during pregnancy, and pups continued to be treated with 10% ribitol in drinking water until they were euthanized at 19 weeks of age. Untreated age-matched P448L and wild-type C57BL/6 mice were used as controls. The animals were terminated at the end of each treatment time point and tissues including heart, diaphragm, TA, quadriceps, liver, spleen and kidney were collected for analyses.
Frozen tissues were processed for hematoxylin and eosin (H&E) and Masson's Trichrome staining following standard procedures. Muscle cross-sectional fiber equivalent diameter was determined from tibialis anterior and quadriceps stained with H&E using MetaMorph v7.7 Software (Molecular Devices). Percentage of centrally nucleated myofibers were manually quantified from the same tissue sections stained with H&E. Fibrotic area represented by blue staining in the Masson's Trichrome stained sections was quantified from heart, diaphragm, tibialis anterior and quadriceps using ImageJ software. For all the morphometric analyses, a total of 300 to 400 fibers from two representative 20× magnification images per each muscle per animal were used.

[5] = system: muscular dystrophy caused by FKRP mutations; assay: Ribitol/ribose supplementation in animal model of FKRP mutation muscular dystrophy; type: in vivo; conditions: supplement via drinking water
[6] = 10% ribitol from pregnancy to 19 weeks
[7] = 10% ribitol from pregnancy, 18 weeks of age

OC[C@@H](O)[C@@H](O)[C@@H](O)CO [ribitol]
Fibrotic area in cardiac muscle vs untreated ([1]; 5% ribitol, 3 and 6 months): significant reduction
Number of fibers with small diameters (TA and quadriceps) ([1]; 5% ribitol, 3 and 6 months): statistically significant decrease
Percentage of CNF (TA and quadriceps) vs untreated ([1]; 5% ribitol, 3 and 6 months): No significant difference
Areas of fibrotic tissue (Masson's Trichrome) vs untreated ([1]; 5% ribitol, 3 and 6 months, limb muscles): significantly decreased
Fibrotic tissue in diaphragm (% of tissue cross-section area) ([1]; 5% ribitol, 3 month treatment): 11%
Fibrotic tissue in diaphragm (% of tissue cross-section area) ([1]; 5% ribitol, 6 month treatment): 18%
Centrally nucleated fibers (CNF) in TA vs untreated [1, 6]: significantly fewer
Fibrosis in cardiac muscle and diaphragm [1, 6]: reduction in fibrosis was significant in cardiac muscle, and most prominent in the diaphragm
Limb muscle function (treadmill exhaustion test) ([2]; 5% ribitol, 3 and 6 months): significant improvement in limb muscle function was not demonstrated
Treadmill running distance and time vs untreated ([2]; 10% ribitol from pregnancy, 17 weeks of age): significantly longer
Grip strength, forelimb force vs untreated [2, 7]: significant improvement
Tidal volume (TV), expiratory volume (EV), minute volume (MV) vs untreated ([3]; 5% ribitol, 3 and 6 months): trend of improvement
Improvement in EV and MV ([3]; 5% ribitol, 6 months): statistically significant
Peak inspiratory flow (PIF) and peak expiratory flow (PEF) ([3]; 5% ribitol, 6 months): Improvement was also observed
Expired volume (EV), relaxation time (RT), enhanced pause (Penh) [3, 7]: improvement
Minute volume (MV) and end-expiratory pause (EEP) vs untreated [3, 7]: reaching significant difference
Histology of liver, kidney and spleen (H&E) ([4]; 5% ribitol, 3 or 6 months): normal structure without degeneration and inflammation
Serum markers of liver and kidney function (ALP, ALT, t-Bil, c-Bil, unc-Bil, BUN, Crea), treated vs untreated ([4]; 5% ribitol, 6 months): No statistical significance
Serum triglycerides (TRG) and glucose (GLU), treated vs untreated ([4]; 5% ribitol, 6 months): similar
Body weight vs age-matched untreated P448L ([4]; 10% ribitol from embryonic stage or 5% ribitol from 7 weeks of age, all time points): No significant difference
Effect on pregnancy, embryo development, body weight and overall behavior ([4]; oral ribitol from pregnancy to adult): does not affect
Disease pathology of muscular dystrophy caused by FKRP mutations [5]: diminish disease pathology
